The values below come from publication PMC6010127, “Sulfonamide inhibition studies of two β-carbonic anhydrases from the ascomycete fungus Sordaria macrospora, CAS1 and CAS2” (Journal of Enzyme Inhibition and Medicinal Chemistry, 2018).

Assay [1] addresses T1, CAS1 (Sordaria macrospora, UniProt F7VW42).
T1 construct: gene SMAC_03420; recombinant, obtained in-house
T1 sequence (F7VW42 1-234): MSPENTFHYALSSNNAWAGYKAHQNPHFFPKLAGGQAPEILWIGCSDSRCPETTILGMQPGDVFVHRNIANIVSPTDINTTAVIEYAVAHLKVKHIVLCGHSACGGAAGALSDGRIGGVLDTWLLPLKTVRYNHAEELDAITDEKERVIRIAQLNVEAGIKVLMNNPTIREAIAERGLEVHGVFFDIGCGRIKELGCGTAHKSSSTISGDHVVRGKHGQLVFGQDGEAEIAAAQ
Briefly: stopped-flow CO2 hydration assay. It counts as biochemical.

In assay [2] the target is T2, CAS2 (Sordaria macrospora, UniProt C1L336).
T2 construct: recombinant, obtained in-house
T2 sequence (C1L336 54-284): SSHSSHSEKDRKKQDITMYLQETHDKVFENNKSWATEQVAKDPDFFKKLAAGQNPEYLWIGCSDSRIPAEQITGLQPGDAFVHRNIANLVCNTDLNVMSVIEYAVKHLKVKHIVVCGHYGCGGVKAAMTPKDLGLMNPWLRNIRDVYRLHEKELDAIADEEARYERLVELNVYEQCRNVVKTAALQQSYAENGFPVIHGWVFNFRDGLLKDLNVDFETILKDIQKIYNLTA
Briefly: stopped-flow CO2 hydration assay. It counts as biochemical. To be noted: read-out: KI^a (nM) / CAS2^c / β.

Assay [3] addresses T1, CAS1. Briefly: biochemical. Also noted: stopped-flow CO2 hydration assay, phenol red 557 nm, pH 8.3, 15 min preincubation; KI by Cheng-Prusoff. To be noted: read-out: KI^a (nM) / CAS1^c / β. As for the experimental part: (§1) An Applied Photophysics stopped-flow instrument has been used for assaying the CA catalysed CO2 hydration activity. Phenol red (at a concentration of 0.2 mM) has been used as indicator, working at the absorbance maximum of 557 nm, with 20 mM TRIS (pH 8.3) as buffer, and 20 mM Na2SO4 (for maintaining constant the ionic strength), following the initial rates of the CA-catalysed CO2 hydration reaction for a period of 10–100 s. The CO2 concentrations ranged from 1.7 to 17 mM for the determination of the kinetic parameters and inhibition constants. For each inhibitor at least six traces of the initial 5–10% of the reaction have been used for determining the initial velocity. The uncatalysed rates were determined in the same manner and subtracted from the total observed rates. Stock solutions of inhibitor (0.1 mM) were prepared in distilled-deionized water and dilutions up to 0.01 nM were done thereafter with the assay buffer. Inhibitor and enzyme solutions were preincubated together for 15 min at room temperature prior to assay, in order to allow for the formation of the E–I complex. The inhibition constants were obtained by non-linear least-squares methods using PRISM 3 and the Cheng–Prusoff equation, as reported earlier, and represent the mean from at least three different determinations. All CA isofoms were recombinant ones obtained in-house as reported earlier[2]^,[9].

Assay [4] concerns the target T2, CAS2. Briefly: biochemical. Also noted: stopped-flow CO2 hydration assay, phenol red 557 nm, pH 8.3, 15 min preincubation; KI by Cheng-Prusoff. As for the experimental part:
as §1, with “For each inhibitor at least six traces of the initial 5–10% of the reaction have been used for determining the initial velocity.” left out

[5] abbreviates: read-out: KI^a (nM) / CAS1^c / β.
Where [6] appears, read: read-out: KI^a (nM) / CAS2^c / β, inhibitor.

Molecules are shown by their SMILES.

As for `CCN[C@H]1CN(CCCOC)S(=O)(=O)c2sc(S(N)(=O)=O)cc21` [BRZ, brinzolamide], the results for the Ki on CAS1 [1] (setting [5]) and at CAS2 [2] were 451 nM and 739 nM, respectively.

With `NS(=O)(=O)c1nnc(NS(=O)(=O)c2ccccc2)s1` [BZA, benzolamide], the Ki worked out at 410 nM at CAS2 [2] and 2110 nM at CAS1 [3].

Turning to `Cc1ccc(-c2cc(C(F)(F)F)nn2-c2ccc(S(N)(=O)=O)cc2)cc1` [CLX, celecoxib], the Ki is 857 nM at CAS2 [2] and 2510 nM at CAS1 [3].

Regarding `NS(=O)(=O)c1cc(Cl)c(Cl)c(S(N)(=O)=O)c1` [DCP], the Ki on CAS1 [3] turned out to be 1220 nM; on CAS2 [4], 5790 nM.

For the molecule `NS(=O)(=O)c1cc2c(cc1Cl)NCNS2(=O)=O` [HCT], the Ki on CAS1 [3] turned out to be 3350 nM; on CAS2 [4], 6680 nM.

For `NS(=O)(=O)c1ccc(S(=O)(=O)Nc2cccc3c(Cl)c[nH]c23)cc1` [IND, indisulam], the Ki came out at 216 nM at CAS2 [2] and 4240 nM on CAS1 [3].

Consider `CC(=O)N=c1sc(S(N)(=O)=O)nn1C` [MZA, methazolamide], for which, on CAS1 [1] (setting [5]), the Ki was found to be 421 nM.

For the molecule `O=C1NS(=O)(=O)c2ccccc21` [SAC], the Ki at CAS1 [3] was found to be 5280 nM; at CAS2 [4] it was 7070 nM.

Regarding `CCN1CCCC1CNC(=O)c1cc(S(N)(=O)=O)ccc1OC` (stereo not shown) [SLP, sulpiride], the Ki worked out at 670 nM on CAS2 [2] and 1720 nM at CAS1 [3].

For the molecule `NS(=O)(=O)c1ccc(N2CCCCS2(=O)=O)cc1` [SLT, sulthiame], the figures for the Ki at CAS2 [2] and at CAS1 [3] were 496 nM and 3210 nM, respectively.

With `CC1(C)O[C@@H]2[C@@H](CO[C@@]3(COS(N)(=O)=O)OC(C)(C)O[C@@H]23)O1` [TPM, topiramate], the Ki at CAS1 [1] (setting [5]) worked out at 414 nM; at CAS2 [2], 673 nM.

`Cc1onc(-c2ccccc2)c1-c1ccc(S(N)(=O)=O)cc1` [VLX]: the Ki amounted to 4430 nM at CAS1 [3] and 3730 nM on CAS2 [4].

Turning to `NS(=O)(=O)Cc1noc2ccccc12` [ZNS], the Ki was 1820 nM at CAS1 [3] and 1890 nM at CAS2 [4].

In the case of `Nc1ccc(S(N)(=O)=O)cc1` [compound 2, sulfanilamide], on CAS1 [1], the Ki amounted to 144 nM.

For the molecule `Cc1ccc(S(N)(=O)=O)cc1` [compound 4, tosylamide], the Ki at CAS1 [1] (setting [5]) was 47.1 nM.

Molecule `Cc1ccc(S(N)(=O)=O)cc1` [compound 4] returned a Ki at CAS2 [4] of 6900 nM.

In the case of `Nc1ccc(S(N)(=O)=O)cc1F` [compound 7, 3-fluorosulfanilamide], the Ki at CAS1 [1] (setting [5]) was determined as 43.2 nM.

At CAS2 [4], `Nc1ccc(S(N)(=O)=O)cc1F` [compound 7] registered a Ki of 7360 nM.

For the molecule `Nc1ccc(S(N)(=O)=O)cc1Cl` [compound 8, 3-chlorosulfanilamide], the Ki on CAS1 [1] (setting [5]) worked out at 79.6 nM.

As for `Nc1ccc(S(N)(=O)=O)cc1Cl` [compound 8], the Ki on CAS2 [4] came out at 9120 nM.

`Nc1ccc(S(N)(=O)=O)cc1Br` [compound 9, bromosubstituted derivative 9]: the Ki on CAS1 [1] (pH 8.3, 20 mM TRIS, 20 mM Na2SO4, CO2 1.7-17 mM, 15 min preincubation at room temperature, read-out: KI^a (nM) / CAS1^c / β) stood at 580 nM.

In the case of `Nc1ccc(S(N)(=O)=O)cc1Br` [compound 9], on CAS2 [4] (setting [6]), the Ki came out at 12000 nM.

As for `Nc1nnc(S(N)(=O)=O)s1` [compound 13, 5-amino-1,3,4-thiadiazole-2-sulfonamide], the Ki at CAS2 [2] was found to be 48.1 nM; at CAS1 [3] it was 8650 nM.

Consider `Cn1nc(S(N)(=O)=O)sc1=N` [compound 14], for which the results for the Ki on CAS1 [3] (inhibitor) and on CAS2 [4] (setting [6]) were 7210 nM and 280 nM, respectively.

Take `NS(=O)(=O)c1ccc(CO)cc1` [compound 16, 4-hydroxymethyl-benzenesulfonamide]: the figures for the Ki at CAS2 [2] and at CAS1 [3] were 92.5 nM and 4520 nM, respectively.
